Values of other authors, collected in patent US20180028686A1 (priority 2014, published 2018).

System: RVFV

In the case of `NC(=O)c1ncn([C@@H]2O[C@H](CO)[C@@H](O)[C@H]2O)n1` [Ribavirin, ribavirin], the IC50 values is given as “low micromolar range”.
